According to patent US11236052B2, “Aminobenzimidazole derivatives, treatments, and methods of inhibiting histone deacetylase” (TRANSLATIONAL DRUG DEVELOPMENT, LLC, priority 2017, dated 2022):

Legend:
H929 = assay: CellTiter-Glo cell viability assay, H929; type: cell-based; conditions: Myeloma
Protocol: (§1) Cell Viability Assay—Cell viability was measured by the CellTiter-Glo® cell viability assay Promega (Madison, Wis.). The CellTiter-Glo® Luminescent Cell Viability Assay is a homogeneous method to determine the number of viable cells in culture based on quantitation of the ATP present, which signals the presence of metabolically active cells. Following treatment, CellTiter-Glo® is added to treatment wells and incubated at 37° C. luminescence values were measured at using a Molecular Devices Spectramax microplate reader.
(§2) Single Agent Studies—Cells were grown to 70% confluency, trypsinized, counted, and seeded in 96 well flat-bottom plates at a final concentration of 2.5×10^3-5×10^3 cells/well (Day 0). Cells were allowed to incubate in growth media for 24 hours. Treatment with the test agents began on Day 1 and continued for 72 hours. At the 72-hour time point, treatment-containing media was removed. Viable cell numbers are quantified by the CellTiter-Glo® cell viability assay as described above. Experiments were run with triplicate concentrations to determine growth inhibitory activity. Results from these studies were used to calculate an IC50 value (concentration of drug that inhibits cell growth by 50 percent of control) for each compound.
(§3) Data Collection—For single agent and combination studies, data from each experiment was collected and expressed as % Cell Growth using the following calculation: % Cell Growth=(ftest/fvehicle)×100
(§4) Where ftest is the luminescence of the tested sample, and fvehicle is the luminescence of the vehicle in which the drug is dissolved. Dose response graphs and IC50 values were generated using Prism 6 software (GraphPad).

KMS-11 = assay: CellTiter-Glo cell viability assay, KMS-11; type: cell-based; conditions: Myeloma
Protocol: as §1, §2, §3, §4

RPMI-8226 = assay: CellTiter-Glo cell viability assay, RPMI-8226; type: cell-based; conditions: Myeloma
Protocol: as §1, §2, §3, §4

MV411 = assay: CellTiter-Glo cell viability assay, MV411; type: cell-based; conditions: AML
Protocol: as §1, §2, §3, §4

SUDHL-4 = assay: CellTiter-Glo cell viability assay, SUDHL-4; type: cell-based; conditions: Lymphoma
Protocol: as §1, §2, §3, §4

SUDHL-10 = assay: CellTiter-Glo cell viability assay, SUDHL-10; type: cell-based; conditions: Lymphoma
Protocol: as §1, §2, §3, §4

RAMOS = assay: CellTiter-Glo cell viability assay, RAMOS; type: cell-based; conditions: Lymphoma
Protocol: as §1, §2, §3, §4

Mino = assay: CellTiter-Glo cell viability assay, Mino; type: cell-based; conditions: Lymphoma
Protocol: as §1, §2, §3, §4

H460 = assay: CellTiter-Glo cell viability assay, H460; type: cell-based; conditions: NSCLC
Protocol: as §1, §2, §3, §4

H1437 = assay: CellTiter-Glo cell viability assay, H1437; type: cell-based; conditions: NSCLC
Protocol: as §1, §2, §3, §4

% PPB, rat = type: in vitro ADME; conditions: plasma; rat (r)

Compound: O=C(NO)c1ccc(Nc2nc3ccccc3n2CC2CCCCC2)cc1 [ID #1, 4-((1-(cyclohexylmethyl)-1H-benzo[d]imidazol-2-yl)amino)-N-hydroxybenzamide]
- IC50 (H929; Homo sapiens, NCI-H929, H929, 72 hours): 830 nM
- Improvement ID #1 over ID #3 Percent (H929; H929): 39.86%
- Improvement ID #1 over ID #3 fold (H929; H929): 1.66 fold
- IC50 (KMS-11; Homo sapiens, KMS-11, 72 hours): 1420 nM
- Improvement ID #1 over ID #3 Percent (KMS-11; KMS-11): 52.98%
- Improvement ID #1 over ID #3 fold (KMS-11; KMS-11): 2.13 fold
- IC50 (RPMI-8226; Homo sapiens, RPMI-8226, 72 hours): 660 nM
- Improvement ID #1 over ID #3 Percent (RPMI-8226; RPMI-8226): 56.29%
- Improvement ID #1 over ID #3 fold (RPMI-8226; RPMI-8226): 2.29 fold
- Improvement ID #1 over ID #3 Percent (MV411; MV411): 77.09%
- Improvement ID #1 over ID #3 fold (MV411; MV411): 4.37 fold
- IC50 (MV411; Homo sapiens, MV4-11, MV411, 72 hours): 630 nM
- IC50 (SUDHL-4; Homo sapiens, SU-DHL-4, SUDHL-4, 72 hours): 240 nM
- Improvement ID #1 over ID #3 Percent (SUDHL-4; SUDHL-4): 94.24%
- Improvement ID #1 over ID #3 fold (SUDHL-4; SUDHL-4): 17.38 fold
- IC50 (SUDHL-10; Homo sapiens, SU-DHL10, SUDHL-10, 72 hours): 550 nM
- Improvement ID #1 over ID #3 Percent (SUDHL-10; SUDHL-10): 63.58%
- Improvement ID #1 over ID #3 fold (SUDHL-10; SUDHL-10): 2.75 fold
- IC50 (RAMOS; Homo sapiens, 72 hours): 1380 nM
- Improvement ID #1 over ID #3 Percent (RAMOS): 52.08%
- Improvement ID #1 over ID #3 fold (RAMOS): 2.09 fold
- IC50 (Mino; Homo sapiens, 72 hours): 1200 nM
- Improvement ID #1 over ID #3 Percent (Mino): 71.22%
- Improvement ID #1 over ID #3 fold (Mino): 3.48 fold
- IC50 (H460; Homo sapiens, NCI-H460, H460, 72 hours): 3470 nM
- Improvement ID #1 over ID #3 Percent (H460; H460): 66.86%
- Improvement ID #1 over ID #3 fold (H460; H460): 3.02 fold
- IC50 (H1437; Homo sapiens, NCI-H1437, H1437, 72 hours): 2190 nM
- Improvement ID #1 over ID #3 Percent (H1437; H1437): 54.28%
- Improvement ID #1 over ID #3 fold (H1437; H1437): 2.19 fold
- fraction unbound (% PPB, rat): 0.0017
